Reference: ChEMBL document CHEMBL1201862, “PubChem BioAssay data set” (2004)
Calls of active or inactive are those of the source.

What was measured:
[1] = inhibitors of PGC1a acetylation in cells, dose response, cell-based, cherry-picked samples (AID 720514); type: functional;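 further: potency may reflect raised or lowered acetylation signal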
[2] = biological target: T1, Caspase-3 (Homo sapiens, UniProt P42574); type: functional;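 further: Dose-response selectivity test against caspase-3 for candidate inhibitors of sentrin-specific proteases (SENPs)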
T1 sequence (P42574 whole entry): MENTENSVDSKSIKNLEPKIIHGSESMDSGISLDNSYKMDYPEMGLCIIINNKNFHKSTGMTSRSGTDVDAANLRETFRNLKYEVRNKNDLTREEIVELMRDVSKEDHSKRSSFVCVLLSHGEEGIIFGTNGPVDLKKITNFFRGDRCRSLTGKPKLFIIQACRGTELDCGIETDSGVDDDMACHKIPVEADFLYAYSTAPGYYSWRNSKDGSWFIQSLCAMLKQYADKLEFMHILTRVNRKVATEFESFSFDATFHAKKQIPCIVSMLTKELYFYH

[3] = biological target: T2, Sentrin-specific protease 7 (Homo sapiens, UniProt Q9BQF6); type: functional;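 further: Luminescence-based dose-response confirmation of ultra-high-throughput screening hits, measuring inhibition of SENP7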
T2 sequence (Q9BQF6 whole entry): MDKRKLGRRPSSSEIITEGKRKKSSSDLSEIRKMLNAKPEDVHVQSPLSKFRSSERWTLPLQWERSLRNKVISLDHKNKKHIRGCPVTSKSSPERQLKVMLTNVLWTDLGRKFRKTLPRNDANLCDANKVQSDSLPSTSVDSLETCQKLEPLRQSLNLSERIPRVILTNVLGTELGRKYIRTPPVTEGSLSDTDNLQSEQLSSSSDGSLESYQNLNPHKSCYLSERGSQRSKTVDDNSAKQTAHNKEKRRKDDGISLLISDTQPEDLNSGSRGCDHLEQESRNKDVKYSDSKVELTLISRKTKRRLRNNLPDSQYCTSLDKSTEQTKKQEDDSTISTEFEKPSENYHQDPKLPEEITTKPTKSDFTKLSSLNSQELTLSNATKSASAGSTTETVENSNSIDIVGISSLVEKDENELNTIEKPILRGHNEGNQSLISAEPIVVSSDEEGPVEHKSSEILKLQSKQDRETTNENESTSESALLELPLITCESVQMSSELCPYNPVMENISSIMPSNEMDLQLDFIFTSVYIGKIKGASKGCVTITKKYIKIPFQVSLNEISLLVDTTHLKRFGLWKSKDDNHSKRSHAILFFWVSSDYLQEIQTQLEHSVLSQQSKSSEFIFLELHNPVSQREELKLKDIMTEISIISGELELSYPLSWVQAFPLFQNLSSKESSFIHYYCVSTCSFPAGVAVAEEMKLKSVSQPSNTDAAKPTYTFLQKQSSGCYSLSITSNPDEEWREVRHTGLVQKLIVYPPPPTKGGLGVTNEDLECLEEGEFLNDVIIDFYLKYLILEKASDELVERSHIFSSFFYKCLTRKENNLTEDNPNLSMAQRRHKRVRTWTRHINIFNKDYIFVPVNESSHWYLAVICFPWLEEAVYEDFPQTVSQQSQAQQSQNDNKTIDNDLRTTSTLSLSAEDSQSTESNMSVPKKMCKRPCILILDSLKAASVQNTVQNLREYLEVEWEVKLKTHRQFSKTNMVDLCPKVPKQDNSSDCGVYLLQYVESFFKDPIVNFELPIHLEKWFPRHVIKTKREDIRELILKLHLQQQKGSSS

[4] = biological target: T3, Sentrin-specific protease 6 (Homo sapiens, UniProt Q9GZR1); type: functional;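 further: Luminescence-based dose-response confirmatory assay of SENP6 inhibition, following up an ultra-high-throughput screen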
T3 sequence (Q9GZR1 whole entry): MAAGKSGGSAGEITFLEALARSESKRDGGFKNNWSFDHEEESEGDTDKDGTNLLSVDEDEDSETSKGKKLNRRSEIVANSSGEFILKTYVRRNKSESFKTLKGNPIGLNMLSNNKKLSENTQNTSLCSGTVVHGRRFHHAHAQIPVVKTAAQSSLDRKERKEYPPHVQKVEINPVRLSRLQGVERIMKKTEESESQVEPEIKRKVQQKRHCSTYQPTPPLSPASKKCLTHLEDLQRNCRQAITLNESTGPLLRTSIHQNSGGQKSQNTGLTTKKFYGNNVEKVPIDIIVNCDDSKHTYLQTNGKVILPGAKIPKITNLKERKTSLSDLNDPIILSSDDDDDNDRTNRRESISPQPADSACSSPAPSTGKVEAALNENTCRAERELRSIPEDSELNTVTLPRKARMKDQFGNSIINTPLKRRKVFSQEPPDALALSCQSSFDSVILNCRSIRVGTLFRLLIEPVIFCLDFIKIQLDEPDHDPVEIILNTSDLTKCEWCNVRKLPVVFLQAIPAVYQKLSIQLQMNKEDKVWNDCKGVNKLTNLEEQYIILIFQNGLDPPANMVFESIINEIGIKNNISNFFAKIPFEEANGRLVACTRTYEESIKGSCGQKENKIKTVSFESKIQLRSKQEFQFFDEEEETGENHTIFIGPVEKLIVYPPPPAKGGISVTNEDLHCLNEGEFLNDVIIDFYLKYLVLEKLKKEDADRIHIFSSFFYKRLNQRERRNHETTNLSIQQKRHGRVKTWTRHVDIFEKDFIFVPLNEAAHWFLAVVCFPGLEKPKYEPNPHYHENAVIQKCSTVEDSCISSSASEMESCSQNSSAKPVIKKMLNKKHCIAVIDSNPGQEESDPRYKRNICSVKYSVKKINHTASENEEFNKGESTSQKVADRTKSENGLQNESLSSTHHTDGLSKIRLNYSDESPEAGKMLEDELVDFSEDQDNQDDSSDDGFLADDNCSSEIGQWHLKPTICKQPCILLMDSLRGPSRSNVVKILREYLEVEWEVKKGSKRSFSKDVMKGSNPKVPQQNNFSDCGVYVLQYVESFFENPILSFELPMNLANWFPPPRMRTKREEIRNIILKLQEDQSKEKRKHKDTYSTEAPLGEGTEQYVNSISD

[5] = biological target: T4, Sentrin-specific protease 8 (Homo sapiens, UniProt Q96LD8); type: functional;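 further: luminescence read-out of SENP8 inhibition, dose-response confirmation following an ultra-high-throughput screen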
T4 sequence (Q96LD8 whole entry): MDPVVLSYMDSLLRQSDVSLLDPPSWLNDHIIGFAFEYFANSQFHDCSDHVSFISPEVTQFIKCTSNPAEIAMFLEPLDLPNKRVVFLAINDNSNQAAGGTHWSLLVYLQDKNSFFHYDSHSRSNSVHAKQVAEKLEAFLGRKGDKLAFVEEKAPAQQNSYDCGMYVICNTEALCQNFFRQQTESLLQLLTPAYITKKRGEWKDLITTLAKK

[6] = biological target: Glucose-6-phosphate 1-dehydrogenase (Homo sapiens, UniProt P11413); experiment: human G6PD enzyme inhibitors, dose response, selectivity assay for P. falciparum G6PD inhibitor project, biochemical, fluorescence (AID 504792); type: functional
Glucose-6-phosphate 1-dehydrogenase, sequence (P11413 whole entry): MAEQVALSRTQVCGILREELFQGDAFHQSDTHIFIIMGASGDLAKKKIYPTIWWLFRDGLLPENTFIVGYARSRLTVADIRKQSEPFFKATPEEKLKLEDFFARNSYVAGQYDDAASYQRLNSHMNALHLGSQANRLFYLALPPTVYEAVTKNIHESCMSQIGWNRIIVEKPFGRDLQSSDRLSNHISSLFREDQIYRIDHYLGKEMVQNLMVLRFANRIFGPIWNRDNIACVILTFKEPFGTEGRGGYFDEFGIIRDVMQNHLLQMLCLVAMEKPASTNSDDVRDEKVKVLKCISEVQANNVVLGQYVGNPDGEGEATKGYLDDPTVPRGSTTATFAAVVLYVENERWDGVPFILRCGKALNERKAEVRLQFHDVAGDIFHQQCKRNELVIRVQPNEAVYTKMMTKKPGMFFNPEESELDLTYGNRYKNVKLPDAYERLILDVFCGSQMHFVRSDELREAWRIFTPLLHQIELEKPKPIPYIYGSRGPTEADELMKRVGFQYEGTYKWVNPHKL

[7] = NIH-3T3 fibroblast cytotoxicity, dose response, cytotoxicity control, cell-based, fluorescence, Alamar Blue, secondary assay (AID 2327); type: functional;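 further: NIH-3T3 mouse fibroblasts cultured with fluconazole at 8 µg/mL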
[8] = cells; type: functional, cell-based
[9] = C. albicans growth with fluconazole, confirmation, fluorescence, retest (AID 2467); type: functional, cell-based
[10] = cells; type: functional, cell-based; remark: listed apart in the source
[11] = biological target: T5, Polyadenylate-binding protein 1 (Homo sapiens, UniProt P11940); experiment: PABP1 MLLE–PAM2 interaction inhibitors, dose response, miRNA deadenylation inhibitor project, biochemical, fluorescence polarization, Cy5-PAM2 peptide, secondary (AID 602260); type: functional; conditions: read-out: IC50_Mean
T5 sequence (P11940 whole entry): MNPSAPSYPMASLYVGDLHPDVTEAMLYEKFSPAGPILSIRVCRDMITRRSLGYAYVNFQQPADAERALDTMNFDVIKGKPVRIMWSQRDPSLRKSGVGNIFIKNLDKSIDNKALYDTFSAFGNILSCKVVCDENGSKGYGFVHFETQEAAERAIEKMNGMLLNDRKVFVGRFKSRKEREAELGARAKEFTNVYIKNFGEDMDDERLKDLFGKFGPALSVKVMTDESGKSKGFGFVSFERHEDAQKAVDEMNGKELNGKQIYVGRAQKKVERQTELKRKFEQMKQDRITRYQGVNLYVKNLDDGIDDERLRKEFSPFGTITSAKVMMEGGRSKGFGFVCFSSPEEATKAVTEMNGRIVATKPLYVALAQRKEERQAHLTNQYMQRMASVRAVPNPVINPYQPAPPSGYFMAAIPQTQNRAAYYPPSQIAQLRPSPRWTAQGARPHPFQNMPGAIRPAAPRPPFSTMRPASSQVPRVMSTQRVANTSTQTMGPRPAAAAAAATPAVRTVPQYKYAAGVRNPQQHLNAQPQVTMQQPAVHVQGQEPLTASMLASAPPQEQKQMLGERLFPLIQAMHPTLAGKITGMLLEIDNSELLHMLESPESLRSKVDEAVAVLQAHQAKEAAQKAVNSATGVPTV

[12] = biological target: T5, Polyadenylate-binding protein 1; experiment: PABP1 MLLE–PAM2 binding inhibitor potency, dose response, biochemical, fluorescence polarization, FITC-PAM2 peptide (AID 602259); type: functional; conditions: read-out: IC50_Mean
[13] = biological target: T6, Long-chain-fatty-acid--AMP ligase FadD28 (Mycobacterium tuberculosis, UniProt P9WQ59); experiment: Fluorescence polarization aasay to screen for inhibitors that compete for the binding of FadD28 to a bisubstrate Measured in Biochemical System Using Plate Reader - 2147-01_Inhibitor_Dose_CherryPick_Activity.; type: functional, Mycobacterium tuberculosis H37Rv
T6 sequence (P9WQ59 whole entry): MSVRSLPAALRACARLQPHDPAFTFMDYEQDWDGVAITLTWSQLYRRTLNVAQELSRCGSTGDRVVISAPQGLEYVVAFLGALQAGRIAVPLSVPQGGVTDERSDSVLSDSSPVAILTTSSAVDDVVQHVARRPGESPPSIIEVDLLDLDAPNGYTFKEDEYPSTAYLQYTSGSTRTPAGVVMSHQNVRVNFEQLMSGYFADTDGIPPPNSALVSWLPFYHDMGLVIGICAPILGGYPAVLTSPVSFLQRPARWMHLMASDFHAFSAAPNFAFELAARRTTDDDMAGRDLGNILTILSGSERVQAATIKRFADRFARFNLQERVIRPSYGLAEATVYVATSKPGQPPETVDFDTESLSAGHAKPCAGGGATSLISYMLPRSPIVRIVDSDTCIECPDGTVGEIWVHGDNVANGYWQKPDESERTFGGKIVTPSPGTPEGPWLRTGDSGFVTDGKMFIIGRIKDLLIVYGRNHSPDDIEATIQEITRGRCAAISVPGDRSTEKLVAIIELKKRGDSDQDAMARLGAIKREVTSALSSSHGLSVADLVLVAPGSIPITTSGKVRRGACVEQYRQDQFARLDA

[14] = inhibitors of intracellular T. cruzi replication, confirmation, NIH3T3 host cells, beta-gal luminescence (AID 2044); type: functional, cell-based;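 further: intracellular parasites grown in NIH/3T3 mouse fibroblasts as host cells; luminescent beta-galactosidase reporter signal from transgenic T. cruzi replicating inside host cells; inhibitors lower the luminescence signal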
[15] = cytotoxicity toward NIH3T3 fibroblasts, dose response, counter-screen, cell-based, ATP luminescence, mouse fibroblasts (AID 2010); type: functional;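 further: cells exposed to compound for about 90 hours before reading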
[16] = THP-1 cell cytotoxicity, dose response, cytotoxicity control for non-replicating M. tuberculosis project (AID 489025); type: functional
[17] = cells; type: functional
[18] = system: INS1; experiment: beta cell apoptosis inhibitors, cytokine rescue, dose response, luminescence, retest (AID 449756); type: functional, cell-based; conditions: Rattus norvegicus;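 further: cell death triggered by IL-1 beta plus TNF-alpha plus IFN-gamma mixture; protective hits raise ATP signal compared with cytokine alone wells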
[19] = biological target: Luciferin 4-monooxygenase (Photinus pyralis, UniProt P08659); experiment: firefly luciferase enzyme inhibitors, dose response, biochemical, luminescence (AID 1891)
Luciferin 4-monooxygenase, sequence (P08659 whole entry): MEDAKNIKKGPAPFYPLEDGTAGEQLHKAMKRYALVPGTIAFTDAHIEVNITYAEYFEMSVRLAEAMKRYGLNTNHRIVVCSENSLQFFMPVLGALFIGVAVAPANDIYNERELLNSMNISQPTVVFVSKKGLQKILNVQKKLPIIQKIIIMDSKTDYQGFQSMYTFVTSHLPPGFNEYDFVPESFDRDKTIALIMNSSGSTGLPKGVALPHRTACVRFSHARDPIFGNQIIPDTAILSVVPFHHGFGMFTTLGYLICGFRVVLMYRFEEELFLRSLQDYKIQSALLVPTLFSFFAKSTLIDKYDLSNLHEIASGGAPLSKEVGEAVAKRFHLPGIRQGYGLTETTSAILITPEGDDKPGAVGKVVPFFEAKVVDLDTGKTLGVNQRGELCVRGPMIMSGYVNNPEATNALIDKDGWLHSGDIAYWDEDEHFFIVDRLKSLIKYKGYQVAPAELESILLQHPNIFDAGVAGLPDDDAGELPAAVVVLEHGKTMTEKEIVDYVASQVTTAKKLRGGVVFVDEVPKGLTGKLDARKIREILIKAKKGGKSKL

[20] = Luminescence Cell-Based Dose Confirmation HTS to Identify Inhibitors of Platelet Dense Granule Release. [Related pubchem assays: 1663 (Primary HTS), 1678 (Summary of Project)]; type: functional
[21] = A549 cell cytotoxicity, dose response, cytotoxicity control, plate reader, cherry-pick, antagonist series (AID 743412); type: functional, cell-based
[22] = LGR2 antagonists, dose response, cell-based, HEK293, CRE-luciferase reporter, cherry pick, set 2 (AID 743343); type: functional;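 further: transfected cells were stimulated with diluted bursicon conditioned medium after compound addition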
[23] = MC4R antagonists, dose response, counter-screen for LGR2 antagonist project, cell-based, plate reader, cherry pick (AID 743444); type: functional;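 further: transfected HEK 293 cells stimulated with alpha-MSH peptide; potency of inhibitors of the alpha-MSH evoked signal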
[24] = HEK293 cell cytotoxicity, dose response, cytotoxicity control, plate reader, cherry-picked samples (AID 743446); type: functional, cell-based
[25] = inhibitors of firefly luciferase expression or activity, dose response, H4 neuroglioma cells, luminescence (AID 1990); type: functional, cell-based
[26] = Luminescence Cell-Based Dose Response HTS to Identify Inhibitors of 5'UTR Stem-Loop Driven Prion Protein mRNA Translation in H4 Neuroglioblastoma Cells. [Related pubchem assays: 1827 (Project Summary), 1813 (Primary HTS)]; type: functional
[27] = inhibitors of SNCA 5'UTR-driven reporter translation, confirmation, H4 neuroglioma cells, luminescence (AID 1988); type: functional, cell-based

COc1ccc(C#Cc2ccc([C@H]3[C@@H](CO)N4CCCCN(C(=O)Nc5ccc(F)cc5)C[C@H]34)cc2)cc1
AC50 [1]: 13.9 µM (active)

Oc1ccccc1-c1csc(-c2ccccc2)n1
IC50 [2]: 16.2 µM (active) | IC50 [3]: 3.44 µM (active) | IC50 [4]: 7.62 µM (active) | IC50 [5]: 10.7 µM (active)

C=CCc1ccccc1OCC(=O)N/N=C/c1ccccc1OCC
IC50 [6]: > 80 µM (inactive)

COc1ccccc1NC(c1cccnc1)c1ccc2cccnc2c1O (centres undefined)
EC50 [7]: > 160 µM (inconclusive) | EC50 [8]: 116 µM (active) | EC50 [9]: > 38 µM (not active) | EC50 [10]: > 350 µM (not active)

Cc1ccc(N=C(S)C2=C(O)c3sccc3N(C)S2(=O)=O)cc1
IC50 [11]: > 66 µM (inactive) | IC50 [12]: > 66 µM (inactive) | AC50 [13]: > 100 µM (inactive)

C/C(=N\NC(=O)Cc1ccc(Br)cc1)c1cccnc1
EC50 [8]: > 350 µM (not active) | EC50 [10]: 36.3 µM (active)

Cc1cccc(N2CCN(c3ccc(N4C(=O)CCCC4=O)cc3[N+](=O)[O-])CC2C)c1 (centres undefined)
EC50 [8]: > 350 µM (not active) | EC50 [10]: > 350 µM (not active)

O=C(Nc1ccc(S(=O)(=O)N2CCOCC2)cc1)c1ccc([N+](=O)[O-])s1
EC50 [14]: 0.394 µM (active) | EC50 [15]: 42.8 µM (active) | CC50 [16]: 23.2 µM (active) | IC50 [17]: 0.7 µM (active) | AC50 [18]: 7.03 µM (active)

CC1(OC(=O)C2CCCC2)C(=O)C=C2C=C(c3ccsc3)N(Cc3ccc4c(c3)OCO4)C=C2C1=O (centres undefined)
IC50 [6]: > 80 µM (inactive)

COc1ccc(-c2cc(-c3ccccc3)no2)cc1
EC50 [19]: 0.895 µM (active) | EC50 [20]: 10.3 µM (active) | AC50 [21]: 45.1 µM (active) | AC50 [22]: 5.01 µM (active) | AC50 [23]: 3.84 µM (active) | AC50 [24]: > 52 µM (inactive)

CCOC(=O)c1ccc(-n2c(N)c(C(=O)NCC3CCCO3)sc2=S)cc1 (centres undefined)
IC50 [6]: > 80 µM (inactive)

Cc1cccc(-c2ccc([C@H]3[C@@H](CO)N4CCCCN(C(=O)c5cccnc5)C[C@@H]34)cc2)c1
AC50 [21]: 38.4 µM (active) | AC50 [22]: 20.8 µM (active) | AC50 [23]: 23.5 µM (active) | AC50 [24]: > 52 µM (inactive)

O=C(N/N=C(\Cc1ncc[nH]1)c1ccccc1)c1ccccc1
EC50 [25]: 12.7 µM (active) | EC50 [8]: > 350 µM (not active) | EC50 [26]: > 120 µM (not active) | EC50 [27]: > 120 µM (not active) | EC50 [10]: > 350 µM (not active)

O=C(CCC(=O)OCC(=O)c1ccc([N+](=O)[O-])cc1)Nc1ccccc1Cl
IC50 [6]: > 80 µM (inactive)

Cc1ccc(NC(=O)c2ccc3c(c2)OCO3)cc1Cl
IC50 [2]: 14 µM (active) | IC50 [3]: 4.44 µM (active) | IC50 [4]: 5.35 µM (active) | IC50 [5]: > 100 µM (inactive)

CCN(CC)S(=O)(=O)c1cc(C(=O)OCC(=O)Nc2cccc(Br)c2)ccc1F
AC50 [13]: 6.81 µM (active)

Cc1ccccc1C(=O)Oc1ccc2ccc(O)cc2c1
IC50 [2]: 35.4 µM (active) | IC50 [3]: 4.59 µM (active) | IC50 [4]: 10.4 µM (active) | IC50 [5]: 12.1 µM (active)
